Results as given in US20260285850A1, “SUBSTITUTED OXAZOLIDINONES AND IMIDAZOLINONES AS HERBICIDES” (FMC CORPORATION, priority 2023, published 2026).

Columns and labels:
Type in all cases: in vivo
[1] = test system: corn (Zea mays); experiment: Test A postemergence application, visual injury rating 0-100
Procedure, shortened: (§1)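 Scale 0–100 (no effect to complete control), visual, versus untreated controls, read 10 days after application. Application: preemergence directed spray onto seeded loam–sand soil, or postemergence to young plants; formulation in non-phytotoxic solvent with surfactant.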

[2] = test system: barnyardgrass (Echinochloa crus-galli); experiment: as above
Procedure, shortened: as §1

[3] = test system: palmer (palmer amaranth, palmer pigweed, Amaranthus palmeri); experiment: as above
Procedure, shortened: as §1

[4] = test system: green foxtail (Setaria viridis); experiment: as above
Procedure, shortened: as §1

[5] = test system: soybean (Glycine max); experiment: as above
Procedure, shortened: as §1

[6] = test system: kochia (Bassia scoparia); experiment: as above
Procedure, shortened: as §1

[7] = test system: oat, wild (wild oat, Avena fatua); experiment: as above
Procedure, shortened: as §1

[8] = test system: ragweed (common ragweed, Ambrosia artemisiifolia); experiment: as above
Procedure, shortened: as §1

[9] = test system: galium (catchweed bedstraw, Galium aparine); experiment: as above; settings: 62 g ai/ha, postemergence, 10 days, 0 = no effect, 100 = complete control
Procedure, shortened: as §1

[10] = test system: ryegrass, Italian (italian ryegrass, Lolium multiflorum); experiment: as above
Procedure, shortened: as §1

[11] = test system: blackgrass (Alopecurus myosuroides); experiment: as above
Procedure, shortened: as §1

[12] = test system: wheat (Triticum aestivum); experiment: as above
Procedure, shortened: as §1

[13] = test system: horseweed (Erigeron canadensis); experiment: as above
Procedure, shortened: as §1

[14] = test system: corn (Zea mays); experiment: Test A preemergence soil spray, visual injury rating 0-100; settings: 10 days
Procedure, shortened: as §1

[15] = test system: barnyardgrass (Echinochloa crus-galli); experiment: as above; settings: 10 days
Procedure, shortened: as §1

[16] = test system: palmer (palmer amaranth, palmer pigweed, Amaranthus palmeri); experiment: as above; settings: 10 days
Procedure, shortened: as §1

[17] = test system: green foxtail (Setaria viridis); experiment: as above; settings: 10 days
Procedure, shortened: as §1

[18] = test system: soybean (Glycine max); experiment: as above; settings: 10 days
Procedure, shortened: as §1

[19] = test system: kochia (Bassia scoparia); experiment: as above; settings: 10 days
Procedure, shortened: as §1

[20] = test system: oat, wild (wild oat, Avena fatua); experiment: as above; settings: 10 days
Procedure, shortened: as §1

[21] = test system: ragweed (common ragweed, Ambrosia artemisiifolia); experiment: as above; settings: 10 days
Procedure, shortened: as §1

[22] = test system: ryegrass, Italian (italian ryegrass, Lolium multiflorum); experiment: as above; settings: 10 days
Procedure, shortened: as §1

[23] = test system: blackgrass (Alopecurus myosuroides); experiment: as above; settings: 10 days
Procedure, shortened: as §1

[24] = test system: wheat (Triticum aestivum); experiment: as above; settings: 10 days
Procedure, shortened: as §1

[25] = test system: barnyardgrass (Echinochloa crusgalli); experiment: Test B flooded paddy test, visual plant response rating 0-100; settings: 250 g ai/ha, Flood, applied to paddy water, evaluated after 13 days
Procedure, shortened: (§2)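 Plants were grown to the 2-leaf stage, then pots were flooded to 3 cm above the soil and compound was applied directly to the paddy water, with that depth kept throughout.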

[26] = test system: rice (Oryza sativa); experiment: as above; settings: 250 g ai/ha, Flood, applied to paddy water, evaluated after 13 days
Procedure, shortened: as §2

[27] = test system: sedge, umbrella (small-flower umbrella sedge, Cyperus difformis); experiment: as above; settings: 250 g ai/ha, Flood, applied to paddy water, evaluated after 13 days
Procedure, shortened: as §2

[28] = test system: ducksalad (Heteranthera limosa); experiment: as above; settings: 250 g ai/ha, Flood, applied to paddy water, evaluated after 13 days
Procedure, shortened: as §2

[29] = 62 g ai/ha, postemergence, 10 days, 0 = no effect, 100 = complete control
[30] = Postemergence, 16 g ai/ha, greenhouse 10 days, 0 no effect, 100 complete control
[31] = 62 g ai/ha, 0 = no effect, 100 = complete control

Compound: CC1(C(=O)NC2CC=C(C(=O)O)C2)CN(c2cc(F)cc(Cl)c2)C(=O)O1 (stereo not drawn) [Compound 160]
- Corn plant response rating (0-100) [1, 29]: 0
- Corn plant response rating (0 to 100 scale) [1, 30]: 0
- Barnyardgrass plant response rating (0-100) [2, 29]: 0
- Barnyardgrass plant response rating (0 to 100 scale) [2, 30]: 0
- Pigweed, Palmer plant response rating (0-100) [3, 29]: 0
- Pigweed, Palmer plant response rating (0 to 100 scale) [3, 30]: 0
- Foxtail, Green plant response rating (0-100) [4, 29]: 0
- Foxtail, Green plant response rating (0 to 100 scale) [4, 30]: 0
- Soybean plant response rating (0-100) [5, 29]: 0
- Soybean plant response rating (0 to 100 scale) [5, 30]: 0
- Kochia plant response rating (0-100) [6, 29]: 0
- Kochia plant response rating (0 to 100 scale) [6, 30]: 0
- Oat, Wild plant response rating (0-100) [7, 29]: 0
- Oat, Wild plant response rating (0 to 100 scale) [7, 30]: 0
- Ragweed plant response rating (0-100) [8, 29]: 0
- Ragweed plant response rating (0 to 100 scale) [8, 30]: 0
- Galium plant response rating (0-100) [9]: 0
- Ryegrass, Italian plant response rating (0-100) [10, 29]: 0
- Ryegrass, Italian plant response rating (0 to 100 scale) [10, 30]: 0
- Blackgrass plant response rating (0-100) [11, 29]: 0
- Blackgrass plant response rating (0 to 100 scale) [11, 30]: 0
- Wheat plant response rating (0-100) [12, 29]: 0
- Wheat plant response rating (0 to 100 scale) [12, 30]: 0
- Horseweed plant response rating (0-100) [13, 29]: 0
- Horseweed plant response rating (0 to 100 scale) [13, 30]: 0
- Corn plant response rating ([14]; 16 g ai/ha, 0 to 100 scale): 0
- Corn plant response rating (0-100) [14, 31]: 0
- Barnyardgrass plant response rating ([15]; 16 g ai/ha, 0 to 100 scale): 0
- Barnyardgrass plant response rating (0-100) [15, 31]: 0
- Pigweed, Palmer plant response rating ([16]; 16 g ai/ha, 0 to 100 scale): 0
- Pigweed, Palmer plant response rating (0-100) [16, 31]: 0
- Foxtail, Green plant response rating ([17]; 16 g ai/ha, 0 to 100 scale): 0
- Foxtail, Green plant response rating (0-100) [17, 31]: 0
- Soybean plant response rating ([18]; 16 g ai/ha, 0 to 100 scale): 0
- Soybean plant response rating (0-100) [18, 31]: 0
- Kochia plant response rating ([19]; 16 g ai/ha, 0 to 100 scale): 0
- Kochia plant response rating (0-100) [19, 31]: 0
- Oat, Wild plant response rating ([20]; 16 g ai/ha, 0 to 100 scale): 0
- Oat, Wild plant response rating (0-100) [20, 31]: 0
- Ragweed plant response rating ([21]; 16 g ai/ha, 0 to 100 scale): 0
- Ragweed plant response rating (0-100) [21, 31]: 0
- Ryegrass, Italian plant response rating ([22]; 16 g ai/ha, 0 to 100 scale): 0
- Ryegrass, Italian plant response rating (0-100) [22, 31]: 0
- Blackgrass plant response rating ([23]; 16 g ai/ha, 0 to 100 scale): 0
- Blackgrass plant response rating (0-100) [23, 31]: 0
- Wheat plant response rating ([24]; 16 g ai/ha, 0 to 100 scale): 0
- Wheat plant response rating (0-100) [24, 31]: 0
- Plant response rating, Barnyardgrass (0 to 100 scale, 0 is no effect and 100 is complete control) [25]: 0
- Plant response rating, Rice (0 to 100 scale, 0 is no effect and 100 is complete control) [26]: 0
- Plant response rating, Sedge, Umbrella (0 to 100 scale, 0 is no effect and 100 is complete control) [27]: 25
- Plant response rating, Ducksalad (0 to 100 scale, 0 is no effect and 100 is complete control) [28]: 55
